Values quoted from earlier work in patent US20220117866A1, “ANHYDROUS ALCOHOL-FREE SILKY FRAGRANCE FORMULATION” (AKI, Inc., priority 2020, published 2022).
Where a name gives a salt, the structure may show the parent alone.

System: laboratory animals
Conditions: oral, dermal and inhalation routes

CCOC(=O)CC(O)(CC(=O)OCC)C(=O)OCC [Triethyl Citrate, Triethyl 2-hydroxypropane-1,2,3-tricarboxylate]
acute toxicity: low
